In PubChem BioAssay AID1963873 (Molecular Pharmacology Branch, DTP, NCI, 2024):

Test system: 276233-004-R-J1-PDC KRAS spheroids with HUVEC/MSC, viability
Experiment: Anticancer human tumor 276233-004-R-J1-PDC patient-derived colon adenocarcinoma cell line growth inhibition [KRAS2]
Details: for viability, T/C: stronger effect = lower value
Excerpt: Multicellular complex tumor spheroid response to RAS pathway inhibitors in combination with a targeted agents in patient-derived cell lines with oncogenic KRAS variants from multiple cancer types
A high-throughput screen of multi-cell type tumor spheroids was designed to identify active combinations of targeted small molecules and KRAS pathway inhibitors. Complex spheroids include a stromal component modeled by human endothelial cells (HUVEC) and fibroblasts modeled by human mesenchymal stem cells (MSCs). The concentration ranges selected for each drug and investigational agent were based upon clinically achievable concentrations if the clinical Cmax of the agent was known.
Compounds. The drugs and investigational agents: BI-3406 (NSC825286), BAY-293 (NSC824723), batoprotafib (TNO155; NSC825523), sotorasib (AMG 510; NSC818433), MRTX1257 (NSC819558), elimusertib (BAY 1895344; NSC800525), molibresib (GSK525762; NSC774829), temuterkib (LY3214996; NSC803410), venetoclax (NSC766270), alisertib (NSC759677), olaparib (NSC753686), talazoparib (NSC767125), erdafitinib (NSC781556), ipatasertib (NSC767898), cabozantinib (NSC761068), nintedanib (NSC756659), abemaciclib (NSC768073), docetaxel (NSC628503), trametinib (NSC758246), and sapanisertib (NSC764658) were obtained from the National Cancer Institute (NCI) Developmental Therapeutics Program Chemical Repository. The FDA-approved anticancer drug set is available from the Developmental Therapeutics Program. […] The stock solutions were prepared in dimethyl sulfoxide (DMSO, Sigma-Aldrich, St. Louis, MO, cat. D2650) at 800-fold the tested concentration and stored at -70 degrees C prior to their use. All drugs and investigational agents were tested over a range starting from a high concentration at or near the clinical Cmax and decreasing in half-log increments. If the clinical Cmax for an agent had not been determined, the highest concentration tested was 10 microM.
Cell Culture. All cells were maintained in an incubator at 37 degrees C and 5% CO2 with 95% humidity. The PDC lines were cultured according to standard operating procedures established by the NCI PDMR (https://pdmr.cancer.gov/sops/default.htm). Briefly, all PDCs were thawed and cultured in Matrigel-coated flasks prepared with a working solution of 1X Ham's F-12 nutrient mix, without supplementation (Invitrogen, Waltham, MA, cat. 11765054), 100 U/mL penicillin-streptomycin (Invitrogen, cat. 15140122), and 2.5% Matrigel (Corning Inc., Corning, NY, cat. 354248) for the first three passages. All PDCs were cultured in complete DMEM/F-12 media containing advanced DMEM/F-12 (Invitrogen, cat. 12634028), 4.9% defined fetal bovine serum, heat inactivated (HyClone Laboratories Inc., Logan, UT, cat. SH30070.03HI), 389 ng/mL hydrocortisone (Sigma-Aldrich, cat. H4001), 9.7 ng/mL human EGF recombinant protein (Invitrogen, cat. PHG0313), 23.4 microg/mL adenine (Sigma-Aldrich, cat. A2786), 97.3 U/mL penicillin-streptomycin (Invitrogen, cat. 15140122), 1.9 mM L-glutamine (Invitrogen, cat. 25030081), and 9.7 microM Y-27632 dihydrochloride (Tocris Bioscience, Bristol, United Kingdom, cat. 1254). The PDCs were cultured in complete DMEM/F12 media without 9.7 microM Y-27632 dihydrochloride for at least two passages prior to the screen. The established cell line HOP-62 was cultured in RPMI 1640 medium, HEPES (Invitrogen, cat. 22400105) with 10% defined fetal bovine serum (HyClone Laboratories Inc., cat. SH30070.03) and 2 mM L-glutamine (Invitrogen, cat. 25030081). The pooled donor HUVEC were cultured in endothelial cell growth medium 2 (PromoCell, Heidelberg, Germany, cat. C-22011) and the hMSC were cultured in mesenchymal stem cell growth medium 2 (PromoCell, cat. C-28009). For all experiments, HUVEC and hMSC were used at passages </=5, while the malignant cell lines were used at passages </=15. […]

[1] = curve of first compound, second compound 0.1 µM
[2] = curve of first compound, second compound 0.316 µM
[3] = curve of first compound, second compound 1 µM
[4] = curve of first compound, second compound 3.16 µM
[5] = curve of first compound, second compound 10 µM
[6] = second compound 0.1 µM, first compound 0.0316 µM
[7] = second compound 0.1 µM, first compound 0.1 µM
[8] = second compound 0.1 µM, first compound 0.316 µM
[9] = second compound 0.1 µM, first compound 1 µM
[10] = second compound 0.1 µM, first compound 3.16 µM
[11] = second compound 0.1 µM, first compound 10 µM
[12] = second compound 0.316 µM, first compound 0.0316 µM
[13] = second compound 0.316 µM, first compound 0.1 µM
[14] = second compound 0.316 µM, first compound 0.316 µM
[15] = second compound 0.316 µM, first compound 1 µM
[16] = second compound 0.316 µM, first compound 3.16 µM
[17] = second compound 0.316 µM, first compound 10 µM
[18] = second compound 1 µM, first compound 0.0316 µM
[19] = second compound 1 µM, first compound 0.1 µM
[20] = second compound 1 µM, first compound 0.316 µM
[21] = second compound 1 µM, first compound 1 µM
[22] = second compound 1 µM, first compound 3.16 µM
[23] = second compound 1 µM, first compound 10 µM
[24] = second compound 3.16 µM, first compound 0.0316 µM
[25] = second compound 3.16 µM, first compound 0.1 µM
[26] = second compound 3.16 µM, first compound 0.316 µM
[27] = second compound 3.16 µM, first compound 1 µM
[28] = second compound 3.16 µM, first compound 3.16 µM
[29] = second compound 3.16 µM, first compound 10 µM
[30] = second compound 10 µM, first compound 0.0316 µM
[31] = second compound 10 µM, first compound 0.1 µM
[32] = second compound 10 µM, first compound 0.316 µM
[33] = second compound 10 µM, first compound 1 µM
[34] = second compound 10 µM, first compound 3.16 µM
[35] = second compound 10 µM, first compound 10 µM
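Further: cells exposed to agents for seven days before viability read.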
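Wherever viability, T/C is given: 100% = DMSO vehicle control wells and lower values mean fewer viable cells.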

Row | SMILES | IC50 [1] [µM] | IC50 [2] [µM] | IC50 [3] [µM] | IC50 [4] [µM] | IC50 [5] [µM] | viability, T/C [6] [%] | viability, T/C [7] [%] | viability, T/C [8] [%] | viability, T/C [9] [%] | viability, T/C [10] [%] | viability, T/C [11] [%] | viability, T/C [12] [%] | viability, T/C [13] [%] | viability, T/C [14] [%] | viability, T/C [15] [%] | viability, T/C [16] [%] | viability, T/C [17] [%] | viability, T/C [18] [%] | viability, T/C [19] [%] | viability, T/C [20] [%] | also measured
1 | COC(=O)c1ccc2c(C(=Nc3ccc(N(C)C(=O)CN4CCN(C)CC4)cc3)c3ccccc3)c(O)[nH]c2c1 + CC1OCC2(CCN(c3cnc(Sc4ccnc(N)c4Cl)c(N)n3)CC2)C1N | > 10 | > 10 | 1.18 | 0.0332 | < 0.0316 | 87.3 | 73.7 | 68.5 | 64.6 | 65.6 | 56.2 | 80 | 63.8 | 59.2 | 64.7 | 46.1 | 70.7 | 67.8 | 61.1 | 54.3 | viability, T/C [21]: 55.1%; viability, T/C [22]: 42.3%; viability, T/C [23]: 42.1%; viability, T/C [24]: 49.8%; viability, T/C [25]: 47.6%; viability, T/C [26]: 40.6%; viability, T/C [27]: 41.1%; viability, T/C [28]: 40%; viability, T/C [29]: 37.3%; viability, T/C [30]: 44.9%; viability, T/C [31]: 49.5%; viability, T/C [32]: 42.6%; viability, T/C [33]: 48%; viability, T/C [34]: 36.3%; viability, T/C [35]: 37.9%
2 | CC1(C)CCC(CN2CCN(c3ccc(C(=O)NS(=O)(=O)c4ccc(NCC5CCOCC5)c([N+](=O)[O-])c4)c(Oc4cnc5[nH]ccc5c4)c3)CC2)=C(c2ccc(Cl)cc2)C1 + C=CC(=O)N1CCN(c2nc(=O)n(-c3c(C)ccnc3C(C)C)c3nc(-c4c(O)cccc4F)c(F)cc23)C(C)C1 | 8.94 | 9.58 | 8.59 | 9.15 | > 10 | 84.2 | 105 | 97.6 | 93.6 | 107 | 44.9 | 98.4 | 108 | 104 | 105 | 92.2 | 47.9 | 92.8 | 108 | 91.4 | viability, T/C [21]: 109%; viability, T/C [22]: 84.8%; viability, T/C [23]: 44.7%; viability, T/C [24]: 80.1%; viability, T/C [25]: 96.9%; viability, T/C [26]: 88.7%; viability, T/C [27]: 102%; viability, T/C [28]: 89.6%; viability, T/C [29]: 46.5%; viability, T/C [30]: 96.6%; viability, T/C [31]: 73.2%; viability, T/C [32]: 69.3%; viability, T/C [33]: 84.2%; viability, T/C [34]: 81.1%; viability, T/C [35]: 57%
3 | Cn1ncnc1[C@H]1c2n[nH]c(=O)c3cc(F)cc(c23)N[C@@H]1c1ccc(F)cc1 |  |  |  |  |  |  |  |  |  |  |  |  |  |  |  |  |  |  |  |  | viability, T/C (compound 0.000316 µM): 96.7% [middle of 5 runs]; viability, T/C (compound 0.001 µM): 101% [middle of 5 runs]; viability, T/C (compound 0.1 µM): 102% [middle of 5 runs]; IC50 (curve of compound): > 0.1 µM
